Results published in patent US10576085B2, “Substituted aminopurine compounds, compositions thereof, and methods of treatment therewith” (Signal Pharmaceuticals, LLC, priority 2016, dated 2020).

System: surface PD-L1
Experiment: Cell surface PD-L1, FACS, multiple cancer cell lines
Assay type: cell-based
Conditions: 48 h
Description: The effect of Compound 1 was evaluated on PD-L1 expression levels. Cells were cultured in presence or absence of Compound 1 for indicated time before expression levels of PD-L1, DUSP4 and α-tubulin or α-actin were measured by Western blot. To detect surface levels of PD-L1, cells were treated with DMSO or Compound 1 at indicated concentrations for 48 h and cell surface expression of PD-L1 was detected using flow cytometry analysis (FACS) with an APC-labeled antibody to PD-L1 (clone 29E.1A3; BioLegend, San Diego, Calif.). Geometric mean of PD-L1 positive cells was determined by FlowJo 10 (Treestar, Ashland, Oreg.).

C[C@]1(C(N)=O)CC[C@@H](n2c(Nc3c(Cl)cc(Cl)cc3Cl)nc3cnc(N[C@@H]4CCOC[C@H]4F)nc32)CC1 [Compound 1, cis-4-[2-{[(3S,4R)-3-fluorooxan-4-yl]amino}-8-(2,4,6-trichloroanilino)-9H-purin-9-yl]-1-methyl cyclohexane-1-carboxamide]
Surface PD-L1 levels: inhibited
